Reference: patent US12415794B2 (Edgewise Therapeutics, Inc., priority 2018, dated 2025)

Experiments:
[1] = target: skeletal myofibrils (myosin ATPase); assay: Skeletal Myofibril ATPase Assay; assay type: biochemical
Procedure: FIG. 7 depicts the buffer preparation procedures of Buffer A and Buffer B for the skeletal myofibril ATPase assay described in Example 12. Buffers were stored on ice until use.
Example 12: Skeletal Myofibril ATPase Assay
(§1) Overview: Myosin ATPase activity is assessed by using a coupled reaction system, in which ADP generated by the myosin ATPase function is coupled to the disappearance of NADH through the pyruvate kinase/lactate dehydrogenase (PK-LDH) system. ATPase activity produces ADP, which is used as a substrate for PK to produce pyruvate and regenerate ATP. The pyruvate is then used as a substrate by LDH to oxidize NADH to NAD+. The rate of the reaction is monitored through the time-dependent disappearance of NADH using absorbance at 340 nm. Inhibition of ATPase activity by the assayed compounds is indicated by a reduced rate of NADH loss, relative to vehicle-treated controls, over the experimental time window. To assess the selectivity of the assayed compounds for skeletal myofibrils, the compounds are counter-screened in cardiac myofibrils.
Materials: The following stock solutions and reagents were used in the Skeletal Myofibril ATPase Assay:
Stock Solutions of pCa buffer. Combine PIPES, CaCl2, and EGTA solutions with 70 mL of water. Adjust pH to 7.0 and bring final volume to 100 mL.
Skeletal Myofibril ATPase Assay Procedure: BSA, ATP, NADH, PEP, and DTT solutions were thawed at room temperature, then transferred to ice. Pellet-frozen myofibrils were transferred with approximately twice the required volume into a sufficiently large tube and capped. Myofibrils were thawed by rolling in a water bath for approximately 15 min at room temperature and cooled on ice. Buffers A and B were prepared by adjusting volumes as necessary for required number of wells and stored on ice. 0.5 μL of the compounds to be assayed were added into wells. 25 μL of Buffer A was dispensed into the wells, followed by 25 μL of Buffer B. The wells were measured for absorbance at 340 nm, using a kinetic protocol in which the wells are read every 1.5-2 min for 45 min. The slope of the data was approximated by subtracting the minimum absorbance value from the maximum value for each well. This was accomplished either in the SoftMax Pro software or in a spreadsheet program such as Excel. Using GraphPad Prism 8.0, the data was normalized by assigning a value of 100% to the 1% DMSO vehicle wells. Typically, a normalized 0% value was simply assigned to a (Max−Min) value of 0. The normalized data was fit to a Four Parameter Logistic sigmoidal equation, constraining the bottom to be 0 or greater. Compounds of Table 1, 2, and 3 were tested and results of the assay appear in Tables 4a-4c. A=IC50 is less than or equal to 10 μM; B=IC50 is greater than 10 μM and less than 100 μM; C=IC50 is greater than 100 μM.

[2] = target: T1, cardiac myofibrils (myosin ATPase); assay: Cardiac Myofibril ATPase Assay (counter screen); assay type: biochemical; settings: myofibrils 1.0 mg/mL, KCl omitted
T1 construct: frozen myofibril pellets obtained from cardiac tissue; from tissue
T1 sequence (P12883 whole entry): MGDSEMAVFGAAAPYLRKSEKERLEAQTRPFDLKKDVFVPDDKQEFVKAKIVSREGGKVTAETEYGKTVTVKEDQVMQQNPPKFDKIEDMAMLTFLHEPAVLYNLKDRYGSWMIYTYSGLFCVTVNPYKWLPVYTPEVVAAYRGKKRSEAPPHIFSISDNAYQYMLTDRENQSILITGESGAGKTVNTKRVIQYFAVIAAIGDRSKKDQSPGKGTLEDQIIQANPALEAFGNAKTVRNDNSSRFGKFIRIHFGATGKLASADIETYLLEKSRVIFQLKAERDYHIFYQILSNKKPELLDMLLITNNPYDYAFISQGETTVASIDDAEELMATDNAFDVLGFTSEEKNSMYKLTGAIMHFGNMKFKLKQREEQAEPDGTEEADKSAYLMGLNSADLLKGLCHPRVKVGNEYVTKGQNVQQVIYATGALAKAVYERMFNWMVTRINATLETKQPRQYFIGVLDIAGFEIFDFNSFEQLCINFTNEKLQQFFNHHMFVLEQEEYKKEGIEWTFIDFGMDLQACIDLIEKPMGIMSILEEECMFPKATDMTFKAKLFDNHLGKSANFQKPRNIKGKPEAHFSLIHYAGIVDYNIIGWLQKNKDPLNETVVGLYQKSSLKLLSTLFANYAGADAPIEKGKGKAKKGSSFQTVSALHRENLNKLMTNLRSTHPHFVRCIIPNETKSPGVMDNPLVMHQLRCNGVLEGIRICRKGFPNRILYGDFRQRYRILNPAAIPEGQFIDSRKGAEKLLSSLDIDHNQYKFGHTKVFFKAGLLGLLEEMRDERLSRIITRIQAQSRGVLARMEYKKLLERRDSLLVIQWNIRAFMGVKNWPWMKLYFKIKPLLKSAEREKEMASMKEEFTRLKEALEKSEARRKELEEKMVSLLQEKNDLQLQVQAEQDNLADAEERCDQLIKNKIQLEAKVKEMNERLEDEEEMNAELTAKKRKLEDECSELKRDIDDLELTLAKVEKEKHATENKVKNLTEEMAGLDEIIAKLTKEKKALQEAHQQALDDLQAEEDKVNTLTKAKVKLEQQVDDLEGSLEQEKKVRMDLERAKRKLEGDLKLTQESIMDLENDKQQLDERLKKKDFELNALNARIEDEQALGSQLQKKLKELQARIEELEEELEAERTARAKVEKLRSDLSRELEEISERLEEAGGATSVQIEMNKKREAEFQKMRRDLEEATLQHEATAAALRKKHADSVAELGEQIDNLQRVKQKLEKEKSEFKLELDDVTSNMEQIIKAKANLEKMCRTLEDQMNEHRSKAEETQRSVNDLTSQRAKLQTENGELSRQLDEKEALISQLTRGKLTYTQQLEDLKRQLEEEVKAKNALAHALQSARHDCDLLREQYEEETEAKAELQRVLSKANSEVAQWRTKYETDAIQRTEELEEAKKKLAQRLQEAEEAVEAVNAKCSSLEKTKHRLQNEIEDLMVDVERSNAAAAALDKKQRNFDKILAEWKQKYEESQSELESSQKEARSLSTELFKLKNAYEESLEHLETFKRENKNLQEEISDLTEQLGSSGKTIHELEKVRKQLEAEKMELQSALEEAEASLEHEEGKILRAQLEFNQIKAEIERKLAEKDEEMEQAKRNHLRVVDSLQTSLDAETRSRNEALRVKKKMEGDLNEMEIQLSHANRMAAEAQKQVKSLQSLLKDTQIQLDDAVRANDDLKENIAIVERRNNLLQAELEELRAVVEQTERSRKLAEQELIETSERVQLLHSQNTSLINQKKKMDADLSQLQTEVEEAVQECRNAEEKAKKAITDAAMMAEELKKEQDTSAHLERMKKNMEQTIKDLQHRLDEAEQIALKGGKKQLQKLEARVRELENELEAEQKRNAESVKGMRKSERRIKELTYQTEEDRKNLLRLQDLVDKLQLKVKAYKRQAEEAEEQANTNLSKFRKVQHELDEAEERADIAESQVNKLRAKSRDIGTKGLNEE
T1 sequence (P08590 whole entry partner): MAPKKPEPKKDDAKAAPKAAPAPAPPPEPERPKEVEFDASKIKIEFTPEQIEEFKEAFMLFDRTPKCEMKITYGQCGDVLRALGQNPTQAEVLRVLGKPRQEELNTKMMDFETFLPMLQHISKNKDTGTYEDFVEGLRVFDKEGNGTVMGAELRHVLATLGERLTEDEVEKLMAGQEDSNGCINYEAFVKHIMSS
T1 sequence (P10916 whole entry partner): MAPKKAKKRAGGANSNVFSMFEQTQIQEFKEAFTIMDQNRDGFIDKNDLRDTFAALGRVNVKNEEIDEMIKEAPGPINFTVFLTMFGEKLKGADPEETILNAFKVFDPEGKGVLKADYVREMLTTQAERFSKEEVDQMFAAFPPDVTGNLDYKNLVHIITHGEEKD
Procedure: as §1
Example 13: Cardiac Myofibril ATPase Assay
Following example 11, the counter screen was done using frozen myofibril pellets obtained from cardiac tissue. The assay was done in the same manner as above, with the following notable exceptions: the final well concentration of myofibrils was 1.0 mg/mL and KCl was omitted from the recipe.
Compounds of Table 1 to 3 were tested, and results of the assays appear in Tables 5a-5c herein. A=IC50 is less than or equal to 10 μM; B=IC50 is greater than 10 μM and less than 100 μM; C=IC50 is greater than 100 μM; and […].

Structure (SMILES)	IC50 ([1]; Table 4A)	IC50 ([2]; Table 5A)	further results
COc1ccc(-c2ccc(=O)n(CC(=O)NCc3cc(Cl)ccc3Cl)n2)cc1			IC50 ([1]; Table 4C): < 10 µM; IC50 ([2]; Table 5C): > 100 µM
CC(C)[C@@](C)(C#N)NC(=O)Cn1nc(-c2ccc(OC(F)F)nc2)ccc1=O (stereo in doubt) [Compound I-34, N-(2-cyano-3-methylbutan-2-yl)-2-(3-(6-(difluoromethoxy)pyridin-3-yl)-6-oxopyridazin-1(6H)-yl)acetamide]	10 to 100 µM	> 100 µM	
CCNC(=O)Cn1nc(-c2cnc(Nc3ccc(Cl)cc3)nc2)ccc1=O [Compound I-1, 2-(3-(2-((4-chlorophenyl)amino)pyrimidin-5-yl)-6-oxopyridazin-1(6H)-yl)-N-ethylacetamide]	< 10 µM	> 100 µM	
CCNC(=O)Cn1nc(-c2cnc(Nc3ccc(F)cc3)nc2)ccc1=O [Compound I-2, N-ethyl-2-(3-(2-((4-fluorophenyl)amino)pyrimidin-5-yl)-6-oxopyridazin-1(6H)-yl)acetamide]	< 10 µM	> 100 µM	
O=C(Cn1nc(-c2ccc(OC(F)F)nc2)ccc1=O)NC1CCC1 [Compound I-4, N-cyclobutyl-2-(3-(6-(difluoromethoxy)pyridin-3-yl)-6-oxopyridazin-1(6H)-yl)acetamide]	< 10 µM	> 100 µM	
COc1ccc(-c2ccc(=O)n(CC(=O)NCc3ccccc3Cl)n2)cn1 [Compound I-5, N-(2-chlorobenzyl)-2-(3-(6-methoxypyridin-3-yl)-6-oxopyridazin-1(6H)-yl)acetamide]	< 10 µM	> 100 µM	
CCNC(=O)Cn1nc(-c2ccc(N3CC(F)(F)C3)nc2)ccc1=O [Compound I-6, 2-(3-(6-(3,3-difluoroazetidin-1-yl)pyridin-3-yl)-6-oxopyridazin-1(6H)-yl)-N-ethylacetamide]	10 to 100 µM	> 100 µM	
CCNC(=O)Cn1nc(-c2ccc(OC(F)F)nc2)ccc1=O [Compound I-7, 2-(3-(6-(difluoromethoxy)pyridin-3-yl)-6-oxopyridazin-1(6H)-yl)-N-ethylacetamide]	< 10 µM	> 100 µM	
CCNC(=O)Cn1nc(-c2cnc(OCC(F)(F)F)nc2)ccc1=O [Compound I-8, N-ethyl-2-(6-oxo-3-(2-(2,2,2-trifluoroethoxy)pyrimidin-5-yl)pyridazin-1(6H)-yl)acetamide]	< 10 µM	> 100 µM	
CCNC(=O)Cn1nc(-c2ccc(OCCC(F)(F)F)nc2)ccc1=O [Compound I-10, N-ethyl-2-(6-oxo-3-(6-(3,3,3-trifluoropropoxy)pyridin-3-yl)pyridazin-1(6H)-yl)acetamide]	10 to 100 µM	> 100 µM	
O=C(Cn1nc(-c2ccc(OC(F)F)nc2)ccc1=O)NC12CC(C1)C2 [Compound I-11, N-(bicyclo[1.1.1]pentan-1-yl)-2-(3-(6-(difluoromethoxy)pyridin-3-yl)-6-oxopyridazin-1(6H)-yl)acetamide]	10 to 100 µM	> 100 µM	
CCNC(=O)Cn1nc(-c2ccc(C3CC3)nc2)ccc1=O [Compound I-12, 2-(3-(6-cyclopropylpyridin-3-yl)-6-oxopyridazin-1(6H)-yl)-N-ethylacetamide]	10 to 100 µM	> 100 µM	
CCNC(=O)Cn1nc(-c2ccc(OCC(F)(F)F)nc2)ccc1=O [Compound I-13, N-ethyl-2-(6-oxo-3-(6-(2,2,2-trifluoroethoxy)pyridin-3-yl)pyridazin-1(6H)-yl)acetamide]	10 to 100 µM	> 100 µM	
CCNC(=O)Cn1nc(-c2ccc(OC(F)(F)F)nc2)ccc1=O [Compound I-14, N-ethyl-2-(6-oxo-3-(6-(trifluoromethoxy)pyridin-3-yl)pyridazin-1(6H)-yl)acetamide]	10 to 100 µM	> 100 µM	
CC1(NC(=O)Cn2nc(-c3ccc(OC(F)F)nc3)ccc2=O)CCC1 [Compound I-15, 2-(3-(6-(difluoromethoxy)pyridin-3-yl)-6-oxopyridazin-1(6H)-yl)-N-(1-methylcyclobutyl)acetamide]	10 to 100 µM	> 100 µM	
COc1ccc(-c2ccc(=O)n(CC(=O)NC(C)C)n2)cn1 [Compound I-16, N-isopropyl-2-(3-(6-methoxypyridin-3-yl)-6-oxopyridazin-1(6H)-yl)acetamide]	10 to 100 µM	> 100 µM	
O=C(Cn1nc(-c2ccc(OC(F)F)nc2)ccc1=O)N[C@H]1CC12CC2 [Compound I-17, (S)-2-(3-(6-(difluoromethoxy)pyridin-3-yl)-6-oxopyridazin-1(6H)-yl)-N-(spiro[2.2]pentan-1-yl)acetamide]	10 to 100 µM	> 100 µM	
CCNC(=O)Cn1nc(-c2ccc(N3CC(C)(C)C3)nc2)ccc1=O [Compound I-18, 2-(3-(6-(3,3-dimethylazetidin-1-yl)pyridin-3-yl)-6-oxopyridazin-1(6H)-yl)-N-ethylacetamide]	10 to 100 µM	> 100 µM	
O=C(Cn1nc(-c2ccc(NC34CC(C3)C4)nc2)ccc1=O)N1CCC1 [Compound I-39, 2-(2-(azetidin-1-yl)-2-oxoethyl)-6-(6-(bicyclo[1.1.1]pentan-1-ylamino)pyridin-3-yl)pyridazin-3(2H)-one]	10 to 100 µM		
CCNC(=O)Cn1nc(-c2ccc(N3CC(COC(F)(F)F)C3)nc2)ccc1=O [Compound I-40, N-ethyl-2-(6-oxo-3-(6-(3-((trifluoromethoxy)methyl)azetidin-1-yl)pyridin-3-yl)pyridazin-1(6H)-yl)acetamide]	10 to 100 µM		
CCNC(=O)Cn1nc(-c2ccc(NC34CCC(CC3)CC4)nc2)ccc1=O [Compound I-41, 2-(3-(6-(bicyclo[2.2.2]octan-1-ylamino)pyridin-3-yl)-6-oxopyridazin-1(6H)-yl)-N-ethylacetamide]	10 to 100 µM		
CCNC(=O)Cn1nc(-c2cnc(NC34CC(O)(C3)C4)nc2)ccc1=O [Compound I-42, N-ethyl-2-(3-(2-((3-hydroxybicyclo[1.1.1]pentan-1-yl)amino)pyrimidin-5-yl)-6-oxopyridazin-1(6H)-yl)acetamide]	10 to 100 µM		
CCNC(=O)Cn1nc(-c2ccc(N3CC4CC(C3)O4)nc2)ccc1=O [Compound I-43, 2-(3-(6-(6-oxa-3-azabicyclo[3.1.1]heptan-3-yl)pyridin-3-yl)-6-oxopyridazin-1(6H)-yl)-N-ethylacetamide]	10 to 100 µM		
O=C(Cn1nc(-c2ccc(NC34CC(C3)C4)nc2)ccc1=O)NC12CC(C1)C2 [Compound I-46, N-(bicyclo[1.1.1]pentan-1-yl)-2-(3-(6-(bicyclo[1.1.1]pentan-1-ylamino)pyridin-3-yl)-6-oxopyridazin-1(6H)-yl)acetamide]	< 10 µM		
CCNC(=O)Cn1nc(-c2ccc(NC)nc2)ccc1=O [Compound I-47, N-ethyl-2-(3-(6-(methylamino)pyridin-3-yl)-6-oxopyridazin-1(6H)-yl)acetamide]	< 10 µM		
CCNC(=O)Cn1nc(-c2ccc(N3CCCC3C(F)(F)F)nc2)ccc1=O (centres unmarked) [Compound I-48, N-ethyl-2-(6-oxo-3-(6-(2-(trifluoromethyl)pyrrolidin-1-yl)pyridin-3-yl)pyridazin-1(6H)-yl)acetamide]	< 10 µM		
CCNC(=O)Cn1nc(-c2cnc(OCCOC(F)(F)F)nc2)ccc1=O [Compound I-49, N-ethyl-2-(6-oxo-3-(2-(2-(trifluoromethoxy)ethoxy)pyrimidin-5-yl)pyridazin-1(6H)-yl)acetamide]	10 to 100 µM		
CC[C@H](C)NC(=O)Cn1nc(-c2ccc(OC(F)F)nc2)ccc1=O [Compound I-67, (S)-N-(sec-butyl)-2-(3-(6-(difluoromethoxy)pyridin-3-yl)-6-oxopyridazin-1(6H)-yl)acetamide]	< 10 µM		
CC(=O)Nc1ccc(-c2ccc(=O)n(CC(=O)NCc3ccccc3Cl)n2)cc1 [II-8, 2-(3-(4-acetamidophenyl)-6-oxopyridazin-1(6H)-yl)-N-(2-chlorobenzyl) acetamide]			IC50 ([1]; Table 4B): < 10 µM
